The numbers were not newly measured in patent publication US10481160B2, “Combined anticancer drug sensitivity-determining marker” (KEIO UNIVERSITY, priority 2012, dated 2019), which cites them from elsewhere.

The series relates to advanced/recurrent colorectal cancer.
Consider `N.N.O=C([O-])C1(C(=O)[O-])CCC1.[Pt+2]` [CBDCA, carboplatin], for which the “anti-tumor effect on colorectal cancer” value is recorded as “ineffective”. As for `[NH2][Pt]([NH2])([Cl])[Cl]` [CDDP, cisplatin], the “anti-tumor effect on colorectal cancer” value is reported as “ineffective”. On to `O=C1[O][Pt]2([NH][C@@H]3CCCC[C@H]3[NH]2)[O]C1=O` [L-OHP, Oxaliplatin], for which the “anti-tumor effect on colorectal cancer” value is “exhibits anti-tumor effect”.
